Where “and” joins values, the source holds several entries; their conditions need not be identical. Equal values may be shown once.
Key:
HL-1 cardiomyocyte = assay: cell viability assay in HL-1 cardiomyocytes (Cell-Titer-Glo); format: cell-based; details: concentrations less than 30 μM, 24 h
Experimental: Besides the mutagenicity study, compounds 5 and 6 were also subjected to cell viability assays using transforming growth factor-alpha mouse hepatocyte (TAMH) and HL-1 cardiomyocyte to assess the cytotoxic potential. TAMH lines were treated with compounds 5 and 6 in eight different concentrations (100 μM, 33.3 μM, 11.1 μM, 3.7 μM, 1.23 μM, 0.41 μM, 0.13 μM, 0.045 μM), and the percentage of viable cells was plotted against the logarithm of ligand concentration (S10B and S10C Fig). […] Acetaminophen, a drug with direct hepatotoxic potential, was used as the positive control in this assay (S10A Fig). […] Doxorubicin, a chemotherapeutic agent known to cause dose-dependent cardiotoxicity, was used as the positive control in this assay (S10D Fig).
Immortalised hepatocyte and cardiomyocyte cell lines, TAMH (TGF-α overexpressing mouse hepatocytes) and HL-1 were used respectively as models for in vitro toxicity studies. Both cell lines were cultured in accordance with previously described methods. […] The cell-reagent mixture was transferred to a solid white flat-bottom 96-well plate (Greiner 655207) for luminescence reading. Luminescence was recorded with an integration time of 0.25 second with a Tecam Infinite® M200 Microplate reader. Data are expressed as percentage of viable cells compared to DMSO-treated controls. […]

[1] = molecular target: human dopamine D2 receptor (Homo sapiens, UniProt P14416); assay: D2R-proteopolymersomes-based fluorescence competition assay with BODIPY-NAPS; format: binding; parameters: made in house; host or cells: in vitro (cell-free) synthesis, inserted into polymersomes; details: + D2-ACM (D2R-proteopolymersomes); read-out: EC50 (D2 receptor, displacement of BODIPY-NAPS)
human dopamine D2 receptor, sequence (P14416 whole entry): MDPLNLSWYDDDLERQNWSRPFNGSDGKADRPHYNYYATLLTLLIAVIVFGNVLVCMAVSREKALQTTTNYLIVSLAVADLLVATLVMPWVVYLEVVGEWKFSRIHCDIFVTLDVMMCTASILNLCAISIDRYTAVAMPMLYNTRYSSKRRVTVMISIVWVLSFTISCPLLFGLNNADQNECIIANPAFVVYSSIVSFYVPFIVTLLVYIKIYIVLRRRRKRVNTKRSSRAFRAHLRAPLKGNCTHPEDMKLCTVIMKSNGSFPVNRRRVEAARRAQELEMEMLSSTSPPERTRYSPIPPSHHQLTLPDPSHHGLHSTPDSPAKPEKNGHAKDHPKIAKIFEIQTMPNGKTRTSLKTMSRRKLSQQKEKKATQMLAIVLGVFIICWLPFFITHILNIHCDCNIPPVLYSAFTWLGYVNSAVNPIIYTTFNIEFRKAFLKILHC
Experimental: For the replacement assay, ABA-polymersomes were covalently attached to an amino-functionalized glass slide, which was then treated with isopropanol, ultrapure water and a N2-stream. […] Program ImageJ was used for determination of fluorescence intensities.

[2] = molecular target: T1, human A3 receptors expressed in CHO cells (Homo sapiens, UniProt P0DMS8); assay: competition binding at human A3 adenosine receptors ([3H]HEMADO displacement); details: displacement of [3H]HEMADO, 95% confidence limits, n = 3–6, read-out: Ki hA3
T1 sequence (P0DMS8 1-318): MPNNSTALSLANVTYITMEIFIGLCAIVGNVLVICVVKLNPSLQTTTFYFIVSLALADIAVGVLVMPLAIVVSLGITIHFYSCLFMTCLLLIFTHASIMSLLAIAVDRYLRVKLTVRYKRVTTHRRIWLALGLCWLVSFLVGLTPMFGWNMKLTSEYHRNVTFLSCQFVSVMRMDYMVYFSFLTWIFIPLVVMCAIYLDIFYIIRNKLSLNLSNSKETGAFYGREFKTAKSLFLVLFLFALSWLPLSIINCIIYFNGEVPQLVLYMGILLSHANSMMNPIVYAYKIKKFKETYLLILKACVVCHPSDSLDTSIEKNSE
Experimental: A two-step procedure was adopted to prepare membrane for radioligand binding from cells stably transfected with human adenosine receptor subtypes (hA1, hA2A and hA3 expressed on CHO cells). Firstly, cell fragments and nuclei were removed by using low-speed centrifugation (1,000 g for 10 min). After that, crude membrane fraction from supernatant was then sedimented at 100,000 g for 30 min. The membrane pellet was subsequently re-suspended in the specific binding buffer, frozen in liquid nitrogen and stored at -80°C. For measurement of adenylyl cyclase activity in the hA2B receptors, one-step centrifugation procedure was used; the homogenate was sedimented for 30 min at 54,000 g. The so-obtained crude membrane pellet was re-suspended in 50 mM Tris/HCl, pH 7.4 and used for the adenylyl cyclase assay immediately.
Non-specific binding was determined using theophylline 1 mM. […] Non-specific binding was determined using N^6-R-phenylisopropyl adenosine (R-PIA) 100 μM. ^41 The binding of [^3H]HEMADO to CHO cells transfected with hA3 adenosine receptors was carried out as described earlier. […] Non-specific binding was determined using R-PIA 100 μM.
The assay mixture was then filtered through the built-in filter at the bottom of the 96-well microplate filtration system (Millipore Multiscreen MAFC) and washed three times with 200 μL of cold buffer. After addition of 20 μL of scintillator to the dried filter plates, the filter bound radioactivity was counted on a Wallac Micro-Beta counter. All Ki values were calculated by non-linear curve fitting with the program SCTFIT [45].

**Q.** For `Cc1cc(C)nc(N2CCN(C(=O)c3c[nH]c4ccccc34)CC2)n1` [Compound 5, 3‐[4‐(4,6‐Dimethylpyrimidin‐2‐yl)piperazine‐1‐carbonyl]‐1H‐indole], which “cytotoxicity (cell viability)” value (HL-1 cardiomyocyte) is on record?
**A.** no toxicity observed

**Q.** And the EC50 [1]?
**A.** 22.5 to 40.2 µM and 22.5 µM

**Q.** And the Ki [2]?
**A.** > 100 µM

**Q.** What does the source list for `Cc1cc(C)nc(N2CCN(C(=O)Cc3c(C)[nH]c4ccccc34)CC2)n1` [Compound 6, 1‐[4‐(4,6‐Dimethylpyrimidin‐2‐yl)piperazin‐1‐yl]‐2‐(2‐methyl‐1H‐indol‐3‐yl)ethan‐1‐one]?
**A.** cytotoxicity (cell viability) (HL-1 cardiomyocyte): no toxicity observed; EC50 [1]: 22.5 to 40.2 µM and 40.2 µM; Ki [2]: > 100 µM
